Source: patent US9393308B2, “Micelle structure of nano preparation for diagnosis or treatment of cancer disease and preparation method thereof” (KOREA ADVANCED INSTITUTE OF SCIENCE AND TECHNOLOGY, priority 2013, dated 2016)

Experiments:
[1] = test system: U251MG, which is a human malignant glioma cell; test: Light induced cytotoxicity by light irradiation (590 to 605 nm, 0.1 J/cm^2); assay type: cell-based; settings: light 590 to 605 nm, 5 mW/cm^2, 0.1 J/cm^2, 12 hours culture
Method: 1×10^4 cell/well of U251MG, which is a human malignant glioma cell, were dispensed into a 96-well plate, and a DMEM/F12 medium (100 μL) was injected four times for each sample. 24 hours after culture, the medium was replaced with media respectively including the nanopreparations prepared in Example 1 and Comparative Examples 2 and 3 (sample treatment group) and a medium without the nanopreparation (non-treatment group). The samples were cultured at the dark room condition for 2 hours, washed with phosphate buffered saline (PBS). Then, media was replaced again with media without the nanopreparation. Subsequently, 5 mW/cm^2 of lighting power of light (590 to 605 nm) was irradiated through a light irradiation system (LIS) so that total energy applied to each cell is adjusted to 0.1 J/cm^2 to perform photodynamic diagnosis (photodynamic therapy). Each cell was cultured for 12 hours at the light irradiation condition. The cultured cell was subjected to the same method as Experimental Example 3 to measure light-cytotoxicity. Light induced cytotoxicity and light induced cytotoxicity efficiency were derived from the measured values by using Equations 1 and 2.

[2] = test system: U251MG, which is a human malignant glioma cell; test: Cytotoxicity when light is not irradiated (WST-1, dark room condition); assay type: cell-based; settings: 10 μM or less, 2 h treatment, 24 h additional culture
Method: In order to evaluate cytotoxicity, U251MG, which is a human malignant glioma cell, was obtained from American Type Culture Collection (ATCC, Manassas, Va., USA). The obtained cell was cultured in a Dulbecco's Modified Eagle's Medium including the nutrient mixture F-12, 10% fetal bovine serum, an antibiotic (penicillin (100 I.U./mL), and streptomycin (100 μg/mL)), and the 0.1 mM MEM non-essential amino acid solution under conditions of 37° C. and 5% carbon dioxide. 5×10^4 cell/well of the cultured cells were dispensed into a 24-well plate, and DMEM/F12 medium (1 mL) was injected four times for each sample. The medium was removed 24 hours after culture, and media respectively including nanopreparations prepared in Example 1 and Comparative Examples 2 and 3 in concentrations of 1.0, 2.5, 5.0, and 10 μM were injected. In this case, the volume of the nanopreparations included in the injected medium was set not to exceed 1.0% of the total volume of the medium. […] Then, absorbance of the culture medium was measured at the wavelength of 450 nm by using an absorbance microplate reader. In this case, the aforementioned whole procedure was performed at a dark room condition, and cell viability was derived from the measured normalized absorbance.

Cc1cc(O)c2c(=O)c3c(O)cc(O)c4c5c(O)cc(O)c6c(=O)c7c(O)cc(C)c8c1c2c(c34)c(c78)c65 [Comparative Example 2, Hypericin]
light toxicity (light induced cytotoxicity efficiency) [1]: 1.00±0.04 % mg/A.U. mL
toxicity to cells when light is not irradiated [2]: do not have toxicity to cells
